Experimental data as given in US20240024403A1, “Compositions and Methods for Managing Weight” (Unigen, Inc., priority 2012, published 2024).
Several values for one entry are separate records, joined by “and”; a condition that tells them apart may be missing. Equal entries are not always repeated. Entries after “also recorded” stand apart in the source; their conditions may differ.

Assays:
[1] = High fat diet induced obesity (DIO) rat model; format: in vivo, Spraue-Dawley rats; set-up: NASH (sum) / NSAH (sum): scale not given here; Epididymal fatty tissue weight / Retroperitoneal fatty tissue weight / Total Fat / Epididymal Fat, absolute weight / Retroperitoneal Fat, absolute weight: unit not given here
Procedure: Male Spraue-Dawley rats, age 4-6 weeks (OrientBio, Inc.; Seongnam, Korea) were housed individually in Polycarbonate cages in a room with a 12 hr:12 hr light-dark cycle and an ambient temperature of 24° C. All the rats were fed a commercial chow diet for 1 week after arrival in the animal facility. Rats were then divided into normal and obesity groups and fed with normal diet (ND) and high fat diets (HFD) respectively. The HFD group was divided into multiple treatment groups: a high fat diet vehicle group (HFD), an orlistat (purchased as OTC drug Alli®) positive control treatment group (ORI, 80 mg/kg of animal weight, 2 times/day). In some examples, sibutramine was used as a positive control (SIB, 3 mg/kg for rat studies and […] for mice studies).
Body weight was measured once or twice per week and feed intake was measured twice per week. Body weight gain was determined for each study group by measurement of the body weight difference for each study group between each successive week of the study. At the end of the experimental period, following a 12-h fasting period, the animals were anesthetized with ether, and blood was drawn from the abdominal vein. Liver and kidney and adipose tissues (epididymal, retroperitoneal, perirenal adipose tissues) were removed from each animal, rinsed with physiological saline, and weighted. Serum concentrations of glucose, total cholesterol and LDL-cholesterol were determined using automatic analyzer (INTEGRA 400, Roche, Germany). Statistical significance of test results was performed by Student's t-test.

CCK peptide = CCK peptide levels in DIO mice (CCK ELISA); format: in vivo; settings: mice on high fat diet; after 7 weeks of administering; % ± SD
Procedure: Therefore, the effect on CCK peptide levels in mice from treatment with Composition 2 (Magnolia:Morus:Mutamba), produced according to the Example 42, or Composition 3 (Morus:Rosemary:Yerba Mate), produced according to the Example 39, was examined to determine the extent to which weight gain and/or appetite were affected through this peptide hormone pathway. Briefly, CCK peptide levels were measured after 7 weeks of administering Compositions […] and 3 to mice on a high fat diet as described in Example 48. Negative controls include mice on a normal diet (NC) and mice on a high fat diet (HFD), each group administered vehicle only. The positive controls were orlistat and sibutrimine. CCK levels were detected using a CCK ELISA assay kit according to the manufacturer's instructions (Abnova, Taipei City, Tiawan). Measurements were performed using microplate reader Victor™ X3 (PerkinElmer Inc., Waltham, MA) and computer software on the PerkinElmer 2030 workstation.

leptin = experiment: Plasma leptin level in DIO mice (ELISA); format: in vivo
Procedure: (§1) Obese mice were treated with various three component compositions to test the anti-obesity and appetite effects of such compositions. Three component Composition 1 (Magnolia:Morus:Yerba Mate) produced according to the Example 38, three component Composition 2 (Magnolia:Morus:Mutamba) produced according to the Example 42, three component Composition 3 (Morus: Rosemary:Yerba Mate) produced according to the Example 39, and three component Composition 9 (Morus:Rosemary:Areca) produced according to the Example 41, were each separately administrated orally to DIO mice as described in the Example 48. The high fat diet (HFD) mice were divided into multiple treatment groups with a total of 10 animals per group. The mice were treated with one of the following: Composition 1 (1300 mg/kg/day), Composition 2 (1300 mg/kg/day), Composition 3 (1700 mg/kg/day), or Composition 9 (1700 mg/kg/day). Control groups included a normal diet group given vehicle only (ND, negative control), a high fat diet group given vehicle only (HFD, negative control), an orlistat group (ORI, 40 mg/kg, 2 times/day, positive control), and a sibutramine group (10 mg/kg, 1 time/day, positive control). Body weight and feed intake were measured daily for 2 weeks after treatment and then twice a week until the end of the 7 week study. At week 2 and week 7 after treatment, mice were fasted for 16 hours and then five animals were examined to measure plasma concentrations of leptin and ghrelin. Leptin and ghrelin levels were measured by using commercial ELISA kits specific for leptin or ghrelin (Millipore Co., Billerica, MA) according to the manufacturer's instructions. Measurements were taken using a microplate reader (Victor™ X3, PerkinElmer Inc., USA) and analyzed with PerkinElmer 2030 workstation computer software.

ghrelin = experiment: Plasma active ghrelin level in DIO mice (ELISA); format: in vivo
Procedure: as §1

[2] = DIO rats, ORI 80 mg/kg, 55 day study, mean
[3] = DIO rats, blood at end of study, ORI 80 mg/kg, mean
[4] = DIO rats, liver pathology, ORI 80 mg/kg, mean
[5] = DIO rats, liver pathology score, ORI group, mean
[6] = DIO mice plasma, 2-week treatment
[7] = DIO mice plasma, 7-week treatment

CCCCCCCCCCC[C@@H](C[C@@H]1OC(=O)[C@H]1CCCCCC)OC(=O)[C@H](CC(C)C)NC=O [ORI, orlistat]
Body Weight Gain [1, 2]: 1.22 g/day | Food Intake [1, 2]: 25.71 g/day | Food Efficiency Ratio (FER) ([1]; DIO rats, ORI 80 mg/kg, 55 day study, body weight gain/food intake): 0.05 | Weight Gain ([1]; DIO rats, ORI 80 mg/kg, day 3, mean): 2.80 | Weight Gain ([1]; DIO rats, ORI 80 mg/kg, day 7, mean): 1.04 | Weight Gain ([1]; DIO rats, ORI 80 mg/kg, day 10, mean): 0.82 | Weight Gain ([1]; DIO rats, ORI 80 mg/kg, day 14, mean): 3.40 | Weight Gain ([1]; DIO rats, ORI 80 mg/kg, day 17, mean): 3.34 | Weight Gain ([1]; DIO rats, ORI 80 mg/kg, day 21, mean): 15.89 | Weight Gain ([1]; DIO rats, ORI 80 mg/kg, day 24, mean): 19.89 | Weight Gain ([1]; DIO rats, ORI 80 mg/kg, day 28, mean): 28.19 | Weight Gain ([1]; DIO rats, ORI 80 mg/kg, day 31, mean): 33.33 | Weight Gain ([1]; DIO rats, ORI 80 mg/kg, day 35, mean): 38.43 | Weight Gain ([1]; DIO rats, ORI 80 mg/kg, day 37, mean): 43.95 | Weight Gain ([1]; DIO rats, ORI 80 mg/kg, day 42, mean): 49.06 | Weight Gain ([1]; DIO rats, ORI 80 mg/kg, day 45, mean): 59.88 | Weight Gain ([1]; DIO rats, ORI 80 mg/kg, day 49, mean): 63.68 | Weight Gain ([1]; DIO rats, ORI 80 mg/kg, day 52, mean): 71.12 | Weight Gain ([1]; DIO rats, ORI 80 mg/kg, day 55, mean): 68.11 | Epididymal fatty tissue weight ([1]; DIO rats, ORI 80 mg/kg, mean): 17.87 | Perirenal fatty tissue weight ([1]; DIO rats, ORI 80 mg/kg, mean): 6.11 | Retroperitoneal fatty tissue weight ([1]; DIO rats, ORI 80 mg/kg, mean): 19.21 | Total Fat ([1]; DIO rats, ORI 80 mg/kg, sum of epididymal, retroperitoneal and perirenal fat): 43.19 | ALP [1, 3]: 480.16 U/L | ALT [1, 3]: 35.65 U/L | AST [1, 3]: 146.39 U/L | LDL-C [1, 3]: 10.63 mg/dL | T-chol [1, 3]: 110.13 mg/dL | TG [1, 3]: 216.38 mg/dL | Hepatocellular ballooning (0-2) [1, 4]: 0.675 and 0.625 | Lobular Inflammation (0-3) [1, 4]: 1.500 | NASH (sum) [1, 4]: 2.875 | Steatosis (0-3) [1, 4]: 0.750 | Epididymal Fat, absolute weight ([1]; DIO rats, ORI group, mean): 17.87 | FER (Food efficiency ratio) ([1]; DIO rats, ORI group, mean): 0.05 | Food Intake ([1]; DIO rats, ORI group, mean): 25.71 g/day | LDL-C ([1]; DIO rats, ORI group, mean): 10.63 mg/dL | Perirenal Fat, absolute weight ([1]; DIO rats, ORI group, mean): 6.11 | Retroperitoneal Fat, absolute weight ([1]; DIO rats, ORI group, mean): 19.21 | T-chol ([1]; DIO rats, ORI group, mean): 110.13 mg/dL | TG ([1]; DIO rats, ORI group, mean): 216.38 mg/dL | Total Fat ([1]; DIO rats, ORI group, mean): 43.19 | Weight Gain ([1]; DIO rats, ORI group, mean): 1.22 g/day | Weight Gain ([1]; DIO rats, day 3, ORI group, mean): 2.80 | Weight Gain ([1]; DIO rats, day 7, ORI group, mean): 1.04 | Weight Gain ([1]; DIO rats, day 10, ORI group, mean): 0.82 | Weight Gain ([1]; DIO rats, day 14, ORI group, mean): 3.40 | Weight Gain ([1]; DIO rats, day 17, ORI group, mean): 3.34 | Weight Gain ([1]; DIO rats, day 21, ORI group, mean): 15.89 | Weight Gain ([1]; DIO rats, day 24, ORI group, mean): 19.89 | Weight Gain ([1]; DIO rats, day 28, ORI group, mean): 28.19 | Weight Gain ([1]; DIO rats, day 31, ORI group, mean): 33.33 | Weight Gain ([1]; DIO rats, day 35, ORI group, mean): 38.43 | Weight Gain ([1]; DIO rats, day 37, ORI group, mean): 43.95 | Weight Gain ([1]; DIO rats, day 42, ORI group, mean): 49.06 | Weight Gain ([1]; DIO rats, day 45, ORI group, mean): 59.88 | Weight Gain ([1]; DIO rats, day 49, ORI group, mean): 63.68 | Weight Gain ([1]; DIO rats, day 52, ORI group, mean): 71.12 | Weight Gain ([1]; DIO rats, day 55, ORI group, mean): 68.11 | Hepatocellular ballooning (0-2) [1, 5]: 0.625 | Lobular Inflammation (0-3) [1, 5]: 1.500 | NSAH (sum) [1, 5]: 2.875 | Steatosis (0-3) [1, 5]: 0.750 | blood biochemistry parameters vs HFD group ([1]; orlistat 80 mg/kg, 2 times/day): no statistically significant decreases in any of the measured blood components; also recorded: did not show any statistically significant decreases in any of the measured blood chemistry components | body weight gain vs HFD group ([1]; orlistat 80 mg/kg, 2 times/day): statistically significant decreases in body weight gain on day 7 through to day 55 | liver pathology (NASH score) vs HFD group ([1]; orlistat 80 mg/kg, 2 times/day): statistically significant decreases in Steatosis, Lobular Inflammation, Hepatocellular ballooning and NASH score | organ and fat pad weights vs HFD group ([1]; orlistat 80 mg/kg, 2 times/day): statistically significant decreases in all categories of fat measurement; also recorded: statistically significant decreases in Epididymal Fat, Retroperitoneal Fat, Perirenal Fat and Total Fat | weight gain per day, food intake per day, food efficiency ratio (FER) vs HFD group ([1]; orlistat 80 mg/kg, 2 times/day): statistically lower values than the HFD group for average Body Weight Gain per day, average Food Intake per day and Food Efficiency Ratio | % CCK binding (CCK peptide): 72.5 ± 3.4% | Leptin (ng/ml) 2-week (leptin; [6]): 11.6 ± 0.06 ng/mL | Leptin (ng/ml) 7-week (leptin; [7]): 19.0 ± 0.24 ng/mL | plasma leptin level vs HFD group (leptin; week 2 and week 7, Composition 2 1300 mg/kg/day, orlistat 40 mg/kg 2 times/day, sibutramine 10 mg/kg 1 time/day): significantly reduced leptin level after 2 weeks of treatment | Active Ghrelin (pg/ml) 2-week (ghrelin; [6]): 1316.4 pg/mL | Active Ghrelin (pg/ml) 7-week (ghrelin; [7]): 1353.7 pg/mL | active ghrelin level vs HFD group (ghrelin; week 2 and week 7, orlistat 40 mg/kg 2 times/day, sibutramine 10 mg/kg 1 time/day): no effect on active ghrelin levels at either week 2 or week 7
